“Also recorded” adds a separate entry of the source.

Series [1] concerns rats. The series is described as follows: Conditioned place aversion (CPA), Example VII. It counts as in vivo, rat. The settings on record: 10 nmole i.c.v. on conditioning days 2,3; test day 4; listed as TPI. As to the method:
Rats were randomly divided into two (2) groups of eight (8) rats each (Groups I and II). Testing was performed in four identical place-conditioning chambers (43×43×30.5 cm) connected to a common interface and computer (MED Associates, Inc., St. Albans, Vt.). Test chambers had two equal compartments, each with unique sensory cues. One compartment had black and white striped walls, a stainless-steel wire mesh floor (0.16-cm wire with 1.27-cm openings), corncob bedding, and lemon-scented water applied to the walls immediately before each test. The other compartment had white walls with black dots, stainless-steel grid floor (0.48-cm rods placed 1.6 cm apart), wood-chip bedding, and banana-scented water applied to the walls. The two compartments were separated by a middle wall with a black guillotine door in the center. All rats were weighed and acclimated to the test room for 20 min each day before being placed into the apparatus.
The CPA test consisted of three phases. During the preconditioning phase (day 1), the animals were placed into the chamber for 15 min. During the conditioning phase (day 2,3), animals were injected i.c.v with either 0 (Group I—n=8) or 10 nmole (Group 2—n=8) of TPI and confined to one side for 20 min. […] The activity of the animals was monitored for 15 min.

The subject of series [2] is rats. Kind of series: Spontaneous food intake after icv administration, Example IV. The following applies: 5 nmol icv. It is filed as in vivo, rat. As to the method: To determine inhibitory effects of TPI 1361-17 on spontaneous food intake, TPI 1361-17 (5 nmol) was administered icv and food intake was measured 0.5 h, 1 h, 2 h, and 4 h after the injection. Food intake was quantified either at the start of either the dark phase, which is considered similar to natural conditions, or the light phase. To synchronize initiation of the food intake and to measure the efficiency of TPI 1361-17, rat food pellets were removed for different lengths of time before the injection. It was observed that TPI 1361-17 reduced spontaneous food intake of rats that have been fasted for 1 hr before the dark phase by 37%. This inhibitory effect was detected within the first 30 minutes of feeding and is not detected later (FIG. 6A).
The two groups of rats that were tested at the beginning of the dark phase were starved for 1 h or 4 h before, being injected with 5 nmol of antagonist or ACSF between 6:00-7:00 p.m. Animals had free access to water. Fifteen minutes after injection, container of regular low-fat diet were placed in the cage, and food consumption was monitored for 4 h. The group of rats that were injected at the beginning of the light phase was starved overnight before being injected at 5 nmol of antagonist or ACSF. Monitoring of the food consumption was identical to that described for the rats starved during the dark phase.
For animal studies, adult male Sprague-Dawley rats weighing 200-300g were obtained from Charles River Laboratories (Wilmington, Mass.), bearing a 23-gauge stainless steel cannula placed into the right lateral ventricle. Rats were housed individually and maintained on a 12 h light-dark cycle (6:00 am-6:00 pm light) with free access to tap water and rat chaw (PROLAB RMH 2500, containing 23.0% protein, 4.5% fat, gross energy 4.5 kcal/g. PMI nutrition international, LLC. Brentwood, Mo.). […]

The target of the next series is T1, MCH1R (Rattus norvegicus, UniProt P97639).
T1 construct: expressed in transfected cells; host or cells: CHO
Kind of series: Library screening: inhibition of 30 nM MCH-induced Ca2+ mobilization in CHO cells expressing MCH1R. It counts as cell-based. The following applies: five concentrations, ten-fold dilutions starting at 10 µM. How it is done: A total of thirteen heterocyclic or peptidomimetics PS-SCLs containing 8,136,870 individual compounds were tested (Table 1). Most libraries were generated in a PS format by using 40˜50 amino acids at each of the R1 and R2 positions, and 40˜80 carboxylic acids at the R3 position. A sample set of PS-SCLs was screened initially, sub-libraries with defined R3 positions and a mixture of building blocks at each of the other two positions were prepared (all compounds in the library are represented). Each sub-library was composed of 40˜80 mixtures containing 1,500˜3,200 individual compounds. […]
Each mixture was assayed in duplicate in three separate assays at three concentrations (1, 0.1 and 0.01 µg/ml) (FIG. 1B). MCH1R inhibition was calculated as the percent decrease in intracellular Ca^2+ mobilization in MCH1R expressing CHO cells induced by 30 nM MCH in the presence or absence of the mixture. […]
Transfected […] cells seeded on black-walled 96-well plates (Sigma, St Louis USA) were loaded for 1 h at 37° C. with Ca^2+-sensitive fluorescent dye, fluo-4 (Molecular Device, CA) in Hanks' balanced salt solution containing 20 mM HEPES (pH 7.4). The level of [Ca^2+]i was then monitored using a FLIPR system (Fluorometric Imaging Plate Reader; Molecular Devices, San Francisco, Calif.). […] Data were expressed as fluorescence (arbitrary units) versus time.
A general note: Calcium flux is commonly read through the fluorescence of an indicator in the cells.

T1 sequence (P97639 whole entry): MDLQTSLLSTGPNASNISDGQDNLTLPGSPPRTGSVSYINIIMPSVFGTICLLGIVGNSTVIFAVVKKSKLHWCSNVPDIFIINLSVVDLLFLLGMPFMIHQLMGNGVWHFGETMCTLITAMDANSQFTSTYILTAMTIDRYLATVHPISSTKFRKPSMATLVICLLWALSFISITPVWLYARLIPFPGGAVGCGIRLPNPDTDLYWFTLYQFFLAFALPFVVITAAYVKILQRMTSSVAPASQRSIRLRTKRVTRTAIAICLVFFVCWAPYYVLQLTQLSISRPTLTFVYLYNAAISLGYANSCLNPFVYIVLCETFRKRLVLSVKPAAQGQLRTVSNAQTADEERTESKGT

Take `C[C@@H](CNCc1ccccc1)N1C[C@H](CCCNC(=N)N)N(CCc2cccc(F)c2)C1=S` [TPI 1361-17, N-(3-{(4S)-1-[(1S)-2-(benzylamino)-1-methylethyl]-3-[2-(3-fluorophenyl)ethyl]-2-thioxoimidazolidin-4-yl}propyl)guanidine]: the Conditioned place aversion result in the series with rats [1] is recorded as “did not cause conditioned place aversion; also recorded: lack of conditioned place aversion”. The “Reduction of spontaneous food intake” value in the series on rats [2] (fasted 1 hr before dark phase, first 30 minutes of feeding) came to 37%. In addition, the “Effect on spontaneous food intake” value in the series on rats [2] (fasted 4 h before the dark phase) and in the series with rats [2] (fasted 12 hrs before the light phase) was “no apparent effect” each time. Also, the “IC50 inhibiting 30 nM MCH-induced Ca2+ mobilization, 84 individual compounds” value at MCH1R is reported as “highest affinity”.

The values above are taken from patent US8372848B2, “Melanin-concentrating hormone receptor antagonists and methods of use” (Mixture Sciences, Inc., priority 2004, dated 2013).
